These results are taken from paper PMC10424185, “C-2 Thiophenyl Tryptophan Trimers Inhibit Cellular Entry of SARS-CoV-2 through Interaction with the Viral Spike (S) Protein” (Journal of Medicinal Chemistry, 2023).

Entries after “also recorded” stand apart in the source; their conditions may differ. Where two headings read alike, the source gives them in different places.

The test system of data set [1] is VSV-SOmicron (S protein of SARS-CoV-2 Omicron BA.1). Description: organism not typed. It is filed as cell-based.
Data set [2] is described as follows: in vitro. As to conditions: African green monkey.
Another data set concerns VSV-SWuhan-Hu-1. Description: microbe, parasite or virus in culture. The class given is cell-based, SARS-CoV-2. As to conditions: Vesicular stomatitis virus, VeroE6/TMPRSS2, read-out: IC50 ± SD, pseudotyped VSV carrying S of Wuhan-Hu-1.
The target of data set [3] is T1, SARS-CoV-2 RBD (Severe acute respiratory syndrome coronavirus 2, UniProt P0DTC2). The class given is binding.
Data set [4] deals with VSV-S (pseudotyped VSV carrying the S protein of Wuhan-Hu-1 SARS-CoV-2). Description: microbe, parasite or virus in culture. The class given is cell-based.
Data set [5] concerns the target binding of human ACE2 catalytic domain to RBD (Severe acute respiratory syndrome coronavirus 2, UniProt P0DTC2). Also noted: species or system SARS-CoV-2 / human.
Data set [6] relates to VSV-S (pseudotyped VSV carrying the S protein of Wuhan-Hu-1 SARS-CoV-2). Nature of the data set: microbe, parasite or virus in culture. As to conditions: read-out: IC50 (concentration at which virus infection is reduced by 50%), VSV-S in A549-ACE2-TMPRSS2 cells. It is filed as cell-based.
Data set [7] concerns VSV-G (VSV pseudotyped with its native glycoprotein). It is filed as cell-based, vesicular stomatitis virus.
Data set [8] can be described thus: in vitro. As to conditions: human.
Data set [9] addresses T1, SARS-CoV-2 RBD. Description: biochemical. The class given is binding.
[10] abbreviates: read-out: IC50 ± SD, pseudotyped VSV carrying S of Omicron BA.1.
Setting [11] is: Vesicular stomatitis virus, Vero C1008, read-out: IC50 (concentration at which virus infection is reduced by 50%), VSV-S in Vero E6 cells.
Where [12] appears, read: read-out: IC50 (concentration at which virus infection is reduced by 50%), VSV-S in Vero E6 cells.
The mark [13] stands for this setting: VeroE6/TMPRSS2, read-out: IC50 ± SD, pseudotyped VSV carrying S of Omicron BA.1.

For the molecule `NCC(=O)NC(CCC(=O)NC(Cc1c(Sc2ccc([N+](=O)[O-])cc2)[nH]c2ccccc12)C(=O)O)(CCC(=O)NC(Cc1c(Sc2ccc([N+](=O)[O-])cc2)[nH]c2ccccc12)C(=O)O)CCC(=O)NC(Cc1c(Sc2ccc([N+](=O)[O-])cc2)[nH]c2ccccc12)C(=O)O` (stereo not shown) [Compound 2], the IC50 in data set [1] (setting [10]) was determined as 21.7 ± 0.83 µM; in the data set on VSV-SWuhan-Hu-1, 0.08 ± 0.07 µM; in data set [4] (setting [11]), 0.64 ± 0.47 µM; in [4] (Vesicular stomatitis virus, Vero C1008, read-out: IC50, compound preincubated with the cells), 0.32 µM; in [4] (Vesicular stomatitis virus, Vero C1008, read-out: IC50, compound preincubated with the virus), 0.48 µM; in data set [4] (setting [12]), 0.6 ± 0.5 µM. The IC50 in data set [6] (Vesicular stomatitis virus) came to 1 ± 0.4 µM. Also, the CC50 in “in vitro [2]” and in the data set “in vitro [8]” was over 100 µM throughout. Moreover, the “effect on thermofluor fluorescence profile / thermal stability of RBD (in words)” value at SARS-CoV-2 RBD [3] is recorded as “shift of the curve toward lower temperatures”. Besides, in data set [4], the “infection (viral GFP reporter) when compound added one-hour post virus addition” value is “no decrease in infection”. In addition, the “infection (viral GFP reporter) when compound added together with the virus” value in data set [4] is recorded as “strong reduction in infection”. Also, the “primary HTS screening result (in words)” value in [4] is “significant antiviral activity in the absence of cytotoxicity”. Besides, the “increase of ACE2 concentrations needed for binding to the RBD” value in data set [5] was about 10 fold. In addition, the “antiviral activity against VSV-G” value in data set [7] is “no antiviral activity”.
Usually Kd stands for the concentration at which binding is half-saturated. In turn, `CS(=O)(=O)c1ccc(Sc2[nH]c3ccccc3c2CC(NC(=O)CCC(CCC(=O)NC(Cc2c(Sc3ccc(S(C)(=O)=O)cc3)[nH]c3ccccc23)C(=O)O)(CCC(=O)NC(Cc2c(Sc3ccc(S(C)(=O)=O)cc3)[nH]c3ccccc23)C(=O)O)NC(=O)CN)C(=O)O)cc1` (stereo not shown) [Compound 42] returned a CC50 in the data set “in vitro [2]” of over 100 µM. For the same molecule, the “effect on thermofluor fluorescence profile / thermal stability of RBD (in words)” value on SARS-CoV-2 RBD [3] is reported as “did not cause any change in the curve; also recorded: no effect on the thermal stability of the RBD”. In addition, the “antiviral activity in the VSV-S assay (in words)” value in data set [4] is “no antiviral activity”. Besides, in data set [4] (setting [11]), the IC50 was over 50 µM. Also, at SARS-CoV-2 RBD [9], the Kd was at least 2500 µM.
As to `O=C(O)CCCCC(=O)NCC(=O)NC(CCC(=O)NC(Cc1c(Sc2ccc([N+](=O)[O-])cc2)[nH]c2ccccc12)C(=O)O)(CCC(=O)NC(Cc1c(Sc2ccc([N+](=O)[O-])cc2)[nH]c2ccccc12)C(=O)O)CCC(=O)NC(Cc1c(Sc2ccc([N+](=O)[O-])cc2)[nH]c2ccccc12)C(=O)O` (stereo not shown) [Compound 61], the CC50 in the data set “in vitro [2]” and in the data set “in vitro [8]” was over 100 µM in each case. On SARS-CoV-2 RBD [3], the “effect on thermofluor fluorescence profile / thermal stability of RBD (in words)” value was “shift of the curve toward lower temperatures”. In addition, the IC50 in data set [4] (setting [11]) was about 2 µM; in data set [4] (setting [12]) it was 2.1 ± 1.5 µM; in data set [6] (Vesicular stomatitis virus), about 2 µM; in data set [6], 2.3 ± 0.8 µM.
`NCCOCCOCCC(=O)NCC(=O)NC(CCC(=O)NC(Cc1c(Sc2ccc([N+](=O)[O-])cc2)[nH]c2ccccc12)C(=O)O)(CCC(=O)NC(Cc1c(Sc2ccc([N+](=O)[O-])cc2)[nH]c2ccccc12)C(=O)O)CCC(=O)NC(Cc1c(Sc2ccc([N+](=O)[O-])cc2)[nH]c2ccccc12)C(=O)O` (stereo not shown) [Compound 63]: the IC50 was 25.4 µM in data set [1] (setting [13]), 0.01 µM with VSV-SWuhan-Hu-1, 0.7 ± 0.9 µM in data set [4] (setting [11]) and 1.4 ± 1.1 µM in [6] (Vesicular stomatitis virus). For the same molecule, the CC50 in “in vitro [2]” and in the data set “in vitro [8]” was over 100 µM throughout.
For `O=C(CCOCCOCCOCCOCCC(=O)NCC(=O)NC(CCC(=O)NC(Cc1c(Sc2ccc([N+](=O)[O-])cc2)[nH]c2ccccc12)C(=O)O)(CCC(=O)NC(Cc1c(Sc2ccc([N+](=O)[O-])cc2)[nH]c2ccccc12)C(=O)O)CCC(=O)NC(Cc1c(Sc2ccc([N+](=O)[O-])cc2)[nH]c2ccccc12)C(=O)O)NCC(=O)NC(CCC(=O)NC(Cc1c(Sc2ccc([N+](=O)[O-])cc2)[nH]c2ccccc12)C(=O)O)(CCC(=O)NC(Cc1c(Sc2ccc([N+](=O)[O-])cc2)[nH]c2ccccc12)C(=O)O)CCC(=O)NC(Cc1c(Sc2ccc([N+](=O)[O-])cc2)[nH]c2ccccc12)C(=O)O` (stereo not shown) [Compound 65], the IC50 in data set [1] (setting [13]) was 6.24 ± 0.16 µM; in [1] (setting [10]) it was under 10 µM; in the data set with VSV-SWuhan-Hu-1, 0.28 ± 0.23 µM; in [4] (setting [11]), 0.28 ± 0.23 µM; in data set [4] (setting [12]), 0.3 ± 0.2 µM; in data set [6] (Vesicular stomatitis virus), 15.8 ± 1.5 µM. The CC50 in “in vitro [2]” and in “in vitro [8]” was over 100 µM throughout. In addition, the “effect on thermofluor fluorescence profile / thermal stability of RBD (in words)” value on SARS-CoV-2 RBD [3] is “shift of the curve toward lower temperatures”. Besides, the “increase of ACE2 concentrations needed for binding to the RBD” value in data set [5] is about 10 fold.
